What is called EC50 is the concentration that produces a half-maximal response.

The values below come from US20250179114A1, “Anti-Inflammatory Compound and Use Thereof” (DUALITY BIOLOGICS (SUZHOU) CO., LTD., priority 2021, published 2025).

Holding throughout (type): cell-based
The test system of experiment [1] is TNF-α secretion from PBMC under R848 stimulation. In words: R848-induced release of TNFα from human peripheral blood monocytes (PBMC). More on the design: unit not given here. To be noted: R848 5 μM, 24 h, ELISA. The method, then:
(§1) Example 4: Inhibitory Effect of Compounds of the Present Invention on R848-Induced Release of IFNα and TNFα from Human Peripheral Blood Monocytes
(§2) The compounds of the present application were detected for their inhibitory effect on the production of peripheral blood monocytes. The peripheral blood monocytes were treated in vitro with the ligand-drug conjugates at different concentrations, and IFNα and TNFα produced by the peripheral blood monocytes were quantitatively detected after a certain time. The compounds of the present invention were evaluated for in-vitro activity.
(§3) The cryopreserved human PBMC cells were resuspended in a complete medium and counted, and the cell suspension was adjusted to 2.5×10^6 cells/mL with the culture medium. After the suspension was centrifuged to collect the cells the next day, the cells were resuspended using fresh culture medium. Test compounds were diluted to 4-fold final concentration in cell culture medium, 50 μL of the compounds were added into a 96-well cell plate, and 100 μL of diluted cells (800,000 cells/well) were added into each well of the 96-well plate containing the compounds, followed by addition of 50 μL R848 to a final concentration of 5 μM. The cell plate was incubated at 37° C. with 5% CO2 for 24 h. The supernatant was collected, and the TNF-α and IFN-α concentration levels in the supernatant were detected using an ELISA kit. TNF-α concentration assay was performed using Dakewe TNF-α ELISA kit (Cat #1117202), 100 μL of the serially-diluted cytokine standard was added into each well, 100 μL of the above supernatant diluted 10-fold was added into each well, and 100 μL of 1× dilution buffer R was added into each blank control well. 50 μL of biotinylated antibody working solution was added into each well. After mixing well, the plate was covered with a plate-sealing membrane and incubated at room temperature for 3 h. The plate was washed for 3 times: the liquid in each well was discarded, and 300 μL of 1× washing buffer working solution was added into each well; after 1 minute of residence, the liquid in the wells was discarded. The procedure was repeated for 3 times. 100 μL of Streptavidin-HRP working solution was added into each well. The plate was covered with the plate-sealing membrane and incubated at room temperature for 20 min. The plate was washed for 3 times, 100 μL of TMB liquid was added into each well, and the plate was incubated at room temperature (18-25° C.) in the dark for 25 min. The reaction was stopped by adding 100 μL stop solution rapidly to each well. The reading at a wavelength of 450 nm was detected by an M2e instrument within 10 min after termination.
The contents of TNF-α and IFN-α were calculated from the OD450 values (Mean±standard deviation).
In general terms: In an ELISA, binding on a coated surface is turned into a signal by an enzyme label.

The subject of experiment [2] is IFN-α secretion from PBMC under R848 stimulation. Briefly: R848-induced release of IFNα from human peripheral blood monocytes (PBMC). On the set-up: unit not given here. The conditions noted are these: R848 5 μM, 24 h, ELISA. The method, then: as §1, §2, §3
IFN-α concentration assay was performed using Dakewe IFN-α ELISA kit (Cat #1110012), 100 μL of the serially-diluted cytokine standard was added into each well, 100 μL of the above supernatant diluted 2-fold was added into each well, and 100 μL of 1× dilution buffer R was added into each blank control well. 50 μL of biotinylated antibody working solution was added into each well. After mixing well, the plate was covered with a plate-sealing membrane and incubated at room temperature for 3 h. The plate was washed for 3 times: the liquid in each well was discarded, and 300 μL of 1× washing buffer working solution was added into each well; after 1 minute of residence, the liquid in the wells was discarded. The procedure was repeated for 3 times. 100 μL of Streptavidin-HRP working solution was added into each well. The plate was covered with the plate-sealing membrane and incubated at room temperature for 20 min. The plate was washed for 3 times, 100 μL of TMB liquid was added into each well, and the plate was incubated at room temperature (18-25° C.) in the dark for 25 min. The reaction was stopped by adding 100 μL stop solution rapidly to each well. The reading at a wavelength of 450 nm was detected by an M2e instrument within 10 min after termination. […]

For another experiment, the target named is T1, glucocorticoid receptor (Homo sapiens, UniProt P04150).
T1 construct: host or cells: HEK293
T1 sequence (P04150 1-777): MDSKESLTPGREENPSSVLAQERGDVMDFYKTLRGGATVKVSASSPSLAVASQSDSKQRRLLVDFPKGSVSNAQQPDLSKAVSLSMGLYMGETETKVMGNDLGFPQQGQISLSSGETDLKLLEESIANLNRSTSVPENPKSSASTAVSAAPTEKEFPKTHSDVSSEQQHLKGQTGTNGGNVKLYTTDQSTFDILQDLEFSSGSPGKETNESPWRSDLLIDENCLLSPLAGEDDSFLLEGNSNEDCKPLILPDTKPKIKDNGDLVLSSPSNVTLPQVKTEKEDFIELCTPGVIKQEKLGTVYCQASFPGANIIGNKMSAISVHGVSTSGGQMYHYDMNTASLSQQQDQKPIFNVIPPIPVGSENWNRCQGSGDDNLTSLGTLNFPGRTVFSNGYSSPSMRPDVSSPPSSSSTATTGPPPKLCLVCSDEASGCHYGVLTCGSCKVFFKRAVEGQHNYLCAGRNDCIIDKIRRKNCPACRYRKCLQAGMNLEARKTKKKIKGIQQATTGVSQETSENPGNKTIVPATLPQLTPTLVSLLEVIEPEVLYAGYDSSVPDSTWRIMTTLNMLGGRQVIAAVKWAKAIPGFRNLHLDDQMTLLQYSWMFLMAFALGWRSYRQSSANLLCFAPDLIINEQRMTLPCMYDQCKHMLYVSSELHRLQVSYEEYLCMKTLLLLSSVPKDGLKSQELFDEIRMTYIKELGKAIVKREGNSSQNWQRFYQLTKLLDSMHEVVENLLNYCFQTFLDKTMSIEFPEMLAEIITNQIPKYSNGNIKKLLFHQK
Briefly: Activity assay of glucocorticoid receptor reporter gene GRE. To be noted: HEK293 cells transfected with pGL5 and pBIND-GR; 24 h; Dual-Glo luciferase. The procedure: HEK293 cells were cultured in DMEM+10% FBS medium in a carbon dioxide incubator humidified at 37° C. with 5% carbon dioxide.
HEK293 cells were digested with trypsin, and the HEK293 cell resuspension was adjusted to 200,000 cell/mL in medium (96 well plate: 100 μL/well).
Transfection reagent mixtures were prepared according to Tables 5a and 5b below, mixed well and left to stand at room temperature for 20 min.
The prepared transfection mixtures were added to 10 mL of the cell density-adjusted resuspension, mixed well by turning the mixtures upside down, and seeded into a 96-well plate at a volume of 100 μL/well.
The 96-well plate was incubated in a humidified incubator at 37° C. with 5% carbon dioxide for 24 h.
The test plate was placed back into the incubator and incubated for 24 h.
The test plate was detected using the Dual-Glo Luciferase Assay System kit from Promega, and the fluorescence signal of Firefly Luciferase and the fluorescence signal of Renilla Luciferase were read using Enspire, respectively.
The final measurement value was a normalized value “F/R” obtained by dividing the Firefly Luciferase fluorescent signal by the Renilla Luciferase fluorescent signal.
The data were copied and pasted into Excel, and the activation rate was obtained through an equation.
The data were imported into MS Excel and subjected to curve fitting by using XLFit excel add-in version 5.4.0.8 to obtain an EC50 value.
Y is the agonism and X is the concentration of the compound.
(In a reporter assay the amount or activity of a reporter protein is the signal.)

Regarding `C[C@]12C=CC(=O)C=C1CC[C@@H]1[C@@H]2[C@@H](O)C[C@@]2(C)[C@H]1C[C@H]1O[C@@H](c3ccn(Cc4cccc(N)c4)c3)O[C@]12C(=O)CO` [Compound 1], the “TNF-α content in supernatant (Mean±standard deviation)” value was 1187.6 ± 87.4 in experiment [1] (compound 4 nM), 611.9 ± 10.7 in experiment [1] (compound 20 nM) and 592.8 ± 92.1 in experiment [1] (compound 100 nM). Further, the “IFN-α content in supernatant (Mean±standard deviation)” value is 228.3 ± 0.2 in experiment [2] (compound 4 nM), 0 ± 0 in experiment [2] (compound 20 nM) and 0 ± 0 in experiment [2] (compound 100 nM).

For the molecule `C[C@]12C=CC(=O)C=C1CC[C@@H]1[C@@H]2[C@@H](O)C[C@@]2(C)[C@H]1C[C@H]1O[C@@H](c3ccn(Cc4ccc(N)cc4)c3)O[C@]12C(=O)CO` [Compound 2], the EC50 at glucocorticoid receptor came out at 0.15 nM. The “TNF-α content in supernatant (Mean±standard deviation)” value in experiment [1] (compound 4 nM) is given as 898.3 ± 27.7; in experiment [1] (compound 20 nM), 584.4 ± 171.1; in experiment [1] (compound 100 nM) it was 623.3 ± 238.4. The entries for the “IFN-α content in supernatant (Mean±standard deviation)” value in experiment [2] (compound 4 nM), in experiment [2] (compound 20 nM) and in experiment [2] (compound 100 nM) were 108 ± 11, 11.1 ± 11.1 and 0 ± 0, respectively.
